Test results from patent publication US9149530B2, “Compositions and methods for enhancing active agent absorption” (Nexus Pharma, Inc., priority 2006, dated 2015).

Test system: Sprague-Dawley rats
Test: Blood glucose depression after intracolonic bovine pancreatic insulin given with absorption enhancer
Assay type: in vivo
Details: enhancer 0 mg/kg (insulin alone), rats n=3
Protocol: It is neutralized by 1 equivalent of sodium hydroxide. The pH is adjusted to 7-8 by 1N HCl and saturated sodium bicarbonate. Bovine pancreatic insulin (1.75 mL; Sigma, 10 mg/mL; in pH 8.2 HEPES buffer) is added and mixed by gentle swirling. The solution density is determined so that the required dose may be calculated.
The solution is then given to Sprague-Dawley rats (2-day fasting, female, 250-300 g, n=3), intracolonically. Blood samples are taken from the tail vein and glucose levels measured using an OneTouch® UltraSmart® blood glucose meter.

bovine pancreatic insulin: Bovine pancreatic insulin (Sigma, 10 mg/mL; in pH 8.2 HEPES buffer), the active agent co-administered
Blood glucose, % of basal level (0 min): 100 % of basal level
Blood glucose, % of basal level (30 min): 94 ± 4 % of basal level
Blood glucose, % of basal level (60 min): 102 ± 7 % of basal level
Blood glucose, % of basal level (90 min): 105 ± 3 % of basal level
Blood glucose, % of basal level (120 min): 107 ± 7 % of basal level
Blood glucose, % of basal level (150 min): 94 ± 7 % of basal level
Blood glucose, % of basal level (180 min): 111 ± 7 % of basal level
Blood glucose, % of basal level (210 min): 113 ± 4 % of basal level
Blood glucose, % of basal level (240 min): 100 ± 7 % of basal level
